These results are taken from US20090111836A1, “Angular Pyranocoumarins, Process for Preparation and Uses Thereof” (CITY UNIVERSITY OF HONG KONG, priority 2007, published 2009).

Each structure is given as a SMILES string. Entries after “also recorded” stand apart in the source; their conditions may differ.

Common to all, as to format: cell-based, human
The test system of one assay is HepG2-DR cells. Nature of the assay: SRB growth inhibition assay, HepG2-DR. The note with it: IC50 HepG2-DR / IC50 HepG2. As for the experimental part:
K562, K562-DR, HepG2, HepG2-DR were cultured in RPMI-1640 medium containing 10% fetal bovine serum and 100 U/mL, antibiotics. […] Drug test: […] New calorimetric cytotoxicity assay for anticancer-drug screening. […] Mosmann T. Rapid colorimetric assay for cellular growth and survival: application to proliferation and cytotoxicity assays. […] Gerlier D, Thomasset N. […] Each growth inhibition experiment must be repeated three times and results are expressed as mean±standard deviation (SD). Solvents and media were included as blank control. In SRB assay, cells are inoculated at 5000 cells/well in a 96-well microplate and incubated overnight to let cells adhere. Drug treatment lasts for 72 hours and cells are fixed for 1 hour at 4° C. with 50 μl ice-cold 15% trichloroacetic acid and washed with triple-distilled water 5 times. […] The protein-bound dye is dissolved in 100 μl per well of 10 mM Tris base (pH 10.5). The color intensity of SRB, which positively correlate to cell number in preliminary experiments, is estimated at OD 515 nm.

For another assay, the system named is KB V1 cells. Nature of the assay: Reversal of multidrug resistance (fold decrease of anticancer drug IC50), KB V1. The method, then:
(§1) Cells and cell culture: cell lines used in the experiments are human hepatoma cell line (HepG2), human leukemia cell line (K562), human epidermoid carcinoma cell line (KB-3-1) and their multidrug resistant sublines HepG2-DR, K562-DR. and KB V1. The culture conditions for all cells are following: at 37° C. and 5% CO2), KB-3-1 and KBV1 were cultured in MEM medium containing 10% fetal bovine serum and 100 U/mL antibiotics; K562, K562-DR, HepG2, HepG2-DR were cultured in RPMI-1640 medium containing 10% fetal bovine serum and 100 U/mL, antibiotics. For maintaining the phenotypic characteristics of multidrug resistance, 1.2 μM and 0.1 μM doxorubicin were respectively added into the mediums of HepG2-DR and K562-DR; 200 ng/mL vinblastine was added into the medium of KBV1. Drug resistant cells were grown in drug free medium for at least 7 days before test.
(§2) Each growth inhibition experiment must be repeated three times and results are expressed as mean±standard deviation (SD). Solvents and media were included as blank control.
In SRB assay, cells are inoculated at 5000 cells/well in a 96-well microplate and incubated overnight to let cells adhere. Drug treatment lasts for 72 hours and cells are fixed for 1 hour at 4° C. with 50 μl ice-cold 15% trichloroacetic acid and washed with triple-distilled water 5 times. Cellular protein is stained by adding 50 μl of 0.4% SRB in 1% acetic acid for 10 minutes, rinsed with 1% acetic acid 5 times and air-dried. The protein-bound dye is dissolved in 100 μl per well of 10 mM Tris base (pH 10.5). The color intensity of SRB, which positively correlate to cell number in preliminary experiments, is estimated at OD 515 nm.
(§3) 1. Materials and methods: the same with I.
(§4) To evaluate the multidrug resistance reversing ability of (±)-Praeruptorin A derivatives, IC50 values of anticancer drugs in the presence and absence of cis-DMDCK, cis-DMDBK, trans-DMDCK, or trans-DMDBK at certain concentration were determined in HepG2-DR, K562-DR and KB V1 cells. The fold decrease of IC50 value of an anticancer drug in certain cell line achieved by a test compound is calculated (fold decrease=IC50 of an anti-tumor drug alone/IC50 of the anti-tumor drug in combination with the test compound) and is used for evaluating the ability of the test compound to reduce drug resistance. The larger the fold decrease value is, the stronger its ability to reverse drug resistance is. The results were average values of three repetitive tests. Verapamil (P-glycoprotein modulator) is the positive control.

Assay [1] deals with K562-DR cells. Nature of the assay: Reversal of multidrug resistance (fold decrease of anticancer drug IC50), K562-DR. The note with it: 4 μM test compound. As for the experimental part: as §1, §2
In MTT assay, cells are inoculated at 5000 cells/well and are incubated overnight. Drug treatment lasts for 68 h. MTT (5 mg/ml in PBS) is added to each well (1:10 dilution). After incubation for 4 hour at 37° C., 5% CO2, 100 μl of stop solution (10% SDS-50% isobutanol-0.01N HCl) is added to each well to stop the reaction. Viable cell number is estimated by correlating to OD at 570 nm.
as §3, §4

Assay [2] relates to P-gp. Nature of the assay: Immunoblotting analysis of P-gp expression, KB V1. The note with it: KB V1, 4 μM, 72 hours. The method, then: (§5) Immunoblotting analysis of P-gp expression: cells were treated with 4 μM of cis-DMDCK, 4 μM of cis-DMDBK, 4 μM of trans-DMDCK, or 4 μM of trans-DMDBK for 72 hours. Treated cells were collected and mixed well in ice-cold lysis buffer (50 mM Tris pH7.4, 100 mM NaCl, 2 mM EDTA, 1% sodium deoxycholate, 0.1% SDS, 1% triton X-100, 2 mM PMSF, 1% aprotinin) for 30 minutes and then centrifuged to get the total protein. Protein concentration was determined using Bradford assay. In this experiment, 50 μg total protein was separated by 8% SDS-PAGE and electro-transferred to nitrocellulose membranes. The membrane was blocked by 5% skim milk/0.1% Tween-20/TBS (10 mM Tris pH7.5, 100 mM NaCl), and then incubated with anti-P-pg antibody for 1 hour, followed by horseradish-peroxidase-conjugated secondary antibody for another 1 hour. Protein bands were detected by the ECL method.
(Immunoblotting shows a protein as a band on a membrane.)

The test system of assay [3] is P-gp. Nature of the assay: Immunoblotting analysis of P-gp expression, K562-DR. The note with it: 4 μM, 72 hours. As for the experimental part:
as §5

The test system of assay [4] is K562-DR cells. Nature of the assay: MTT growth inhibition assay, K562-DR. The note with it: IC50 K562-DR / IC50 K562. As for the experimental part: K562, K562-DR, HepG2, HepG2-DR were cultured in RPMI-1640 medium containing 10% fetal bovine serum and 100 U/mL, antibiotics. […] Drug test: […] New calorimetric cytotoxicity assay for anticancer-drug screening. […] Mosmann T. Rapid colorimetric assay for cellular growth and survival: application to proliferation and cytotoxicity assays. […] Gerlier D, Thomasset N. […] Each growth inhibition experiment must be repeated three times and results are expressed as mean±standard deviation (SD). Solvents and media were included as blank control. In MTT assay, cells are inoculated at 5000 cells/well and are incubated overnight. Drug treatment lasts for 68 h. MTT (5 mg/ml in PBS) is added to each well (1:10 dilution). […] Viable cell number is estimated by correlating to OD at 570 nm.

For `COc1ccc(C(=O)O[C@@H]2c3c(ccc4ccc(=O)oc34)OC(C)(C)[C@@H]2OC(=O)c2ccc(OC)c(OC)c2)cc1OC` (racemic) [cis-DMDBK, (±)-3′-O,4′-O-bis(3,4-dimethoxybenzoyl)-cis-khellactone], the Resistant ratio in the assay on HepG2-DR cells is on record as 1.19; in the assay on K562-DR cells [4], 0.91. Moreover, the “Reversing parameter: fold decrease of IC50, verapamil” value is on record as 6.8 ± 2.9 fold in the assay with KB V1 cells (KB V1, 2 μM test compound); 83.3 ± 35.3 fold in the assay with KB V1 cells (KB V1, 4 μM test compound); 105.8 ± 51.1 fold in the assay with K562-DR cells [1]. The “Reversing parameter: fold decrease of IC50 of Doxorubicin” value was 5.6 ± 2.4 fold in the assay with KB V1 cells (KB V1, 2 μM test compound); 16.1 ± 9.5 fold in the assay on KB V1 cells (KB V1, 4 μM test compound); 18.9 ± 7.9 fold in the assay on K562-DR cells [1]. The “Reversing parameter: fold decrease of IC50 of Puromycin” value in the assay on KB V1 cells (KB V1, 2 μM test compound) is listed as 15.4 ± 3.3 fold; in the assay on KB V1 cells (KB V1, 4 μM test compound) it was 36.8 ± 16.6 fold; in the assay on K562-DR cells [1] it was 21.8 ± 3.1 fold. The “Reversing parameter: fold decrease of IC50 of Vinblastine” value with KB V1 cells (KB V1, 2 μM test compound) stood at 3.5 ± 1.4 fold; with KB V1 cells (KB V1, 4 μM test compound), 51.6 ± 11.0 fold; with K562-DR cells [1] it was 75.6 ± 21.3 fold. Moreover, the “Change in P-gp (MDR1) expression level” value with P-gp [2] and with P-gp [3] was “no detectable alteration; also recorded: not observed” in each case.
As to `COc1ccc(/C=C/C(=O)O[C@@H]2c3c(ccc4ccc(=O)oc34)OC(C)(C)[C@@H]2OC(=O)/C=C/c2ccc(OC)c(OC)c2)cc1OC` (racemic) [cis-DMDCK, (±)-3′-O,4′-O-bis(3,4-dimethoxycinnamoyl)-cis-khellactone], the Resistant ratio in the assay with HepG2-DR cells and in the assay on K562-DR cells [4] was 1.29 throughout. Besides, the “Reversing parameter: fold decrease of IC50, verapamil” value is 9.0 ± 9.7 fold in the assay with KB V1 cells (KB V1, 1 μM test compound); 128.2 ± 53.8 fold in the assay on KB V1 cells (KB V1, 2 μM test compound); 499.8 ± 202.8 fold in the assay with KB V1 cells (KB V1, 4 μM test compound); 169.9 ± 39.4 fold with K562-DR cells [1]. Also, the “Reversing parameter: fold decrease of IC50 of Doxorubicin” value with KB V1 cells (KB V1, 1 μM test compound) is given as 8.9 ± 2.3 fold; in the assay with KB V1 cells (KB V1, 2 μM test compound), 19.1 ± 11.1 fold; in the assay on KB V1 cells (KB V1, 4 μM test compound), 50.0 ± 19.1 fold; in the assay on K562-DR cells [1], 28.8 ± 8.9 fold. Moreover, the “Reversing parameter: fold decrease of IC50 of Puromycin” value with KB V1 cells (KB V1, 1 μM test compound) came to 37.0 ± 14.4 fold; in the assay with KB V1 cells (KB V1, 2 μM test compound), 61.4 ± 31.3 fold; in the assay with KB V1 cells (KB V1, 4 μM test compound), 131.0 ± 7.1 fold; in the assay on K562-DR cells [1] it was 38.8 ± 8.9 fold. In addition, the “Reversing parameter: fold decrease of IC50 of Vinblastine” value was determined as 2.3 ± 0.8 fold in the assay with KB V1 cells (KB V1, 1 μM test compound); 115.0 ± 17.6 fold in the assay with KB V1 cells (KB V1, 2 μM test compound); 331.2 ± 155.4 fold in the assay on KB V1 cells (KB V1, 4 μM test compound); 138.7 ± 39.6 fold with K562-DR cells [1]. Besides, the “Change in P-gp (MDR1) expression level” value with P-gp [2] and in the assay with P-gp [3] was “no detectable alteration; also recorded: not observed” in each case.
With `COc1ccc(C(=O)O[C@@H]2[C@@H](OC(=O)c3ccc(OC)c(OC)c3)c3c(ccc4ccc(=O)oc34)OC2(C)C)cc1OC` (racemic) [trans-DMDBK, (±)-3′-O,4′-O-bis(3,4-dimethoxybenzoyl)-trans-khellactone], the Resistant ratio is given as 1.31 in the assay with HepG2-DR cells and 1.50 in the assay with K562-DR cells [4]. The “Reversing parameter: fold decrease of IC50, verapamil” value with KB V1 cells (KB V1, 4 μM test compound) came to 2.2 ± 0.4 fold; with K562-DR cells [1], 9.8 ± 2.1 fold. In addition, the “Reversing parameter: fold decrease of IC50 of Doxorubicin” value in the assay with KB V1 cells (KB V1, 4 μM test compound) stood at 2.7 ± 0.9 fold; in the assay on K562-DR cells [1], 7.0 ± 2.2 fold. Moreover, the “Reversing parameter: fold decrease of IC50 of Puromycin” value with KB V1 cells (KB V1, 4 μM test compound) was 8.4 ± 4.2 fold; in the assay with K562-DR cells [1], 6.7 ± 0.4 fold. The “Reversing parameter: fold decrease of IC50 of Vinblastine” value was determined as 1.4 ± 0.2 fold in the assay with KB V1 cells (KB V1, 4 μM test compound) and 11.0 ± 0.6 fold with K562-DR cells [1]. Also, the “Change in P-gp (MDR1) expression level” value with P-gp [2] and in the assay on P-gp [3] was “no detectable alteration; also recorded: not observed” each time.
For `COc1ccc(/C=C/C(=O)O[C@@H]2[C@@H](OC(=O)/C=C/c3ccc(OC)c(OC)c3)c3c(ccc4ccc(=O)oc34)OC2(C)C)cc1OC` (racemic) [trans-DMDCK, (±)-3′-O,4′-O-bis(3,4-dimethoxycinnamoyl)-trans-khellactone], the Resistant ratio in the assay with HepG2-DR cells was 1.36; with K562-DR cells [4], 1.42. The “Reversing parameter: fold decrease of IC50, verapamil” value with KB V1 cells (KB V1, 4 μM test compound) was 6.0 ± 3.1 fold; in the assay with K562-DR cells [1] it was 27.8 ± 8.7 fold. Besides, the “Reversing parameter: fold decrease of IC50 of Puromycin” value with KB V1 cells (KB V1, 4 μM test compound) is given as 15.3 ± 2.5 fold; in the assay with K562-DR cells [1], 31.1 ± 16.7 fold. Moreover, in the assay with K562-DR cells [1], the “Reversing parameter: fold decrease of IC50 of Doxorubicin” value is 16.1 ± 9.6 fold. For the same compound, the “Reversing parameter: fold decrease of IC50 of Vinblastine” value in the assay on K562-DR cells [1] is reported as 31.6 ± 5.1 fold. The “Change in P-gp (MDR1) expression level” value in the assay with P-gp [2] and in the assay on P-gp [3] was “no detectable alteration; also recorded: not observed” in each case.
